# Test results reported in patent publication US12064448B2, “Methods for reducing bioavailability and absorption of ingested substances” (Nanyang Technological University, priority 2017, dated 2024).
# Tested on: pancreatic lipase
# Experiment: 3-phase simulated digestion, pH-stat titration of fatty acids released in small intestinal phase
# Type: biochemical
# Conditions: heavy cream, 13.3% fat, orlistat 4.8 mg/ml
# From the text: Corn oils was purchased from Sigma, Inc. These aforementioned fat food models were combined with nanocellulose or other control fibers including psyllium husk (Sigma) and wheat dextrin (Sigma) or the lipase inhibitor orlistat (Sigma). To combine test materials with cream, water, cream and the test material were combined to achieve the desired final concentrations of each, and the mixture was vortexed for 30 seconds. To combine test fibers with corn oil, the oil and water components were first combined and homogenized at high speed for 1 minute. Fibers or orlistat were then added to the emulsion and the mixture was vortexed for 30 seconds.
# In vivo simulated digestion was performed using a 3-phase (mouth, stomach, small intestine) method. Briefly, in the mouth phase of the gastrointestinal tract (GIT) simulator, the nano-enabled food was mixed with a simulated saliva fluid and incubated at 37° C. for 10 seconds. The resultant mouth digesta was then combined and incubated with a simulated gastric fluid and incubated for 2 hours at 37° C. on an orbital shaker to complete the stomach phase. […] Free fatty acid (FFA) at the beginning of the intestinal phase (before addition of lipase) and in the final digesta was measured using a fluorometric assay kit (Cayman Chemical Cat #700310). […]
structure (smiles),measurement,value
CCCCCCCCCCC[C@@H](C[C@@H]1OC(=O)[C@H]1CCCCCC)OC(=O)[C@H](CC(C)C)NC=O [orlistat],"reduction of lipase activity (NaOH titrant used, percentage of total free fatty acids released)",91.5%
